Results from US20200187499A1, “SUBSTITUTED BENZYL-4-AMINOPICOLINIC ESTERS AND PYRIMIDINO-4-CARBOXYLIC ESTERS, METHODS FOR THE PRODUCTION THEREOF, AND USE THEREOF AS HERBICIDES AND PLANT GROWTH REGULATORS” (Bayer CropScience Aktiengesellschaft, priority 2017, published 2020).

Assays:
Assay type in all cases: in vivo
SETVI [1] = assay: Post-emergence herbicidal action; settings: 320 g/ha, assessed after about 3 weeks
Experimental: (§1) Seeds of monocotyledonous and dicotyledonous weed and crop plants are laid out in sandy loam soil in wood-fiber pots, covered with soil and cultivated in a greenhouse under good growth conditions. 2 to 3 weeks after sowing, the test plants are treated at the one-leaf stage. The compounds of the invention, formulated in the form of wettable powders (WP) or as emulsion concentrates (EC), are then sprayed onto the green parts of the plants in the form of an aqueous suspension or emulsion at a water application rate equating to 600 to 800 l/ha, with addition of 0.2% wetting agent. After the test plants have been left to stand in the greenhouse under optimal growth conditions for about 3 weeks, the action of the preparations is assessed visually in comparison to untreated controls (herbicidal action in percent (%): 100% activity=the plants have died, 0% activity=like control plants). […] At the same time, inventive compounds leave Gramineae crops such as barley, wheat, rye, millet/sorghum, corn or rice virtually undamaged when applied post-emergence, even at high active ingredient dosages. In addition, some substances are also harmless to dicotyledonous crops such as soya, cotton, oilseed rape, sugar beet or potatoes. Some of the compounds according to the invention have high selectivity and are therefore suitable for controlling unwanted vegetation in agricultural crops by the post-emergence method. The tables below illustrate, in an exemplary manner, the post-emergence herbicidal action of the compounds according to the invention, the herbicidal activity being stated in percent.

STEME = assay: Post-emergence herbicidal action; settings: 320 g/ha, assessed after about 3 weeks
Experimental: as §1

POLCO = assay: Post-emergence herbicidal action; settings: Table 5, post-emergence (PO), 320 g/ha, assessed after about 3 weeks
Experimental: as §1

VIOTR = assay: Post-emergence herbicidal action; settings: Table 5, post-emergence (PO), 320 g/ha, assessed after about 3 weeks
Experimental: as §1

ECHCG [2] = assay: Post-emergence herbicidal action; settings: Table 5, post-emergence (PO), 320 g/ha, assessed after about 3 weeks
Experimental: as §1

PHBPU = assay: Post-emergence herbicidal action; settings: Table 5, post-emergence (PO), 320 g/ha, assessed after about 3 weeks
Experimental: as §1

ABUTH [3] = assay: Post-emergence herbicidal action; settings: 320 g/ha, assessed after about 3 weeks
Experimental: as §1

AMARE [4] = assay: Post-emergence herbicidal action; settings: 320 g/ha, assessed after about 3 weeks
Experimental: as §1

ECHCG [5] = assay: Pre-emergence herbicidal action; settings: 320 g/ha, scored after 3 weeks
Source text: (§2) Seeds of monocotyledonous and dicotyledonous weed plants and crop plants are laid out in sandy loam soil in wood-fiber pots and covered with soil. The compounds of the invention, formulated in the form of wettable powders (WP) or as emulsion concentrates (EC), are then applied to the surface of the covering soil in the form of an aqueous suspension or emulsion at a water application rate equating to 600 to 800 I/ha, with addition of 0.2% wetting agent. After the treatment, the pots are placed in a greenhouse and kept under good growth conditions for the trial plants. The damage to the test plants is scored visually after a test period of 3 weeks by comparison with untreated controls (herbicidal activity in percent (%): 100% activity=the plants have died, 0% activity=like control plants).
(§3) At the same time, inventive compounds leave Gramineae crops such as barley, wheat, rye, millet/sorghum, corn or rice virtually undamaged when applied pre-emergence, even at high active ingredient dosages. In addition, some substances are also harmless to dicotyledonous crops such as soya, cotton, oilseed rape, sugar beet or potatoes. […] The tables below illustrate, in an exemplary manner, the pre-emergence herbicidal action of the compounds according to the invention, the herbicidal activity being stated in percent.

AMARE [6] = assay: Pre-emergence herbicidal action; settings: 320 g/ha, scored after 3 weeks
Source text: as §2, §3

SETVI [7] = assay: Pre-emergence herbicidal action; settings: Table 3, pre-emergence (PE), 320 g/ha, scored after 3 weeks
Source text: as §2, §3

ALOMY = assay: Pre-emergence herbicidal action; settings: Table 3, pre-emergence (PE), 320 g/ha, scored after 3 weeks
Source text: as §2, §3

ABUTH [8] = assay: Pre-emergence herbicidal action; settings: Table 3, pre-emergence (PE), 320 g/ha, scored after 3 weeks
Source text: as §2, §3

SMILES | Herbicidal action against SETVI (SETVI [1]; Table 5, post-emergence (PO)) [%] | Herbicidal action against STEME (STEME; Table 5, post-emergence (PO)) [%] | Herbicidal action against POLCO (POLCO) [%] | Herbicidal action against VIOTR (VIOTR) [%] | Herbicidal action against ECHCG (ECHCG [2]) [%] | Herbicidal action against PHBPU (PHBPU) [%] | Herbicidal action against ABUTH (ABUTH [3]; Table 5, post-emergence (PO)) [%] | Herbicidal action against AMARE (AMARE [4]; Table 5, post-emergence (PO)) [%] | Herbicidal action against ECHCG (ECHCG [5]; Table 4, pre-emergence (PE)) [%] | Herbicidal action against AMARE (AMARE [6]; Table 4, pre-emergence (PE)) [%] | Herbicidal action against SETVI (SETVI [7]) [%] | Herbicidal action against ALOMY (ALOMY) [%] | Herbicidal action against ECHCG (ECHCG [5]; Table 3, pre-emergence (PE)) [%] | Herbicidal action against ABUTH (ABUTH [8]) [%] | Herbicidal action against AMARE (AMARE [6]; Table 3, pre-emergence (PE)) [%] | Herbicidal action against SETVI (SETVI [1]; Table 6, post-emergence (PO)) [%] | Herbicidal action against STEME (STEME; Table 6, post-emergence (PO)) [%] | Herbicidal action against ABUTH (ABUTH [3]; Table 6, post-emergence (PO)) [%] | Herbicidal action against AMARE (AMARE [4]; Table 6, post-emergence (PO)) [%]
COc1ccc(COC(=O)c2nc(-c3ccc4ccoc4c3)c(F)c(N)c2Cl)c(OC)c1 [Example I-35] | 100 | 90 | 80 | 60 | 90 | 20 | 80 | 100 | 40 | 100 | – | – | – | – | – | – | – | – | –
Nc1c(Cl)c(C(=O)OCc2cccc(C(F)(F)F)c2)nc(Cl)c1-c1ccc2sccc2c1 [Example I-21, 3-(trifluoromethyl)benzyl 4-amino-6-chloro-(1-benzothiophen-5-yl)-3-chloropyridine-2-carboxylate] | 90 | 90 | 40 | 80 | 90 | 80 | 90 | 100 | – | – | 80 | 40 | 100 | 50 | 60 | – | – | – | –
Nc1cc(-c2ccc3ncsc3c2)nc(C(=O)OCc2cccc(F)c2)c1Cl [Example I-41] | 100 | 100 | 0 | 90 | 100 | 70 | 100 | 90 | 90 | 50 | – | – | – | – | – | – | – | – | –
Nc1cc(-c2ccc3ccsc3c2)nc(C(=O)OCc2ccc(Cl)cc2)c1Cl [Example I-14] | 90 | 100 | 100 | 70 | 90 | 80 | 100 | 100 | – | – | 80 | 30 | 100 | 50 | 100 | – | – | – | –
Nc1c(F)c(-c2ccc3ccsc3c2)nc(C(=O)OCc2ccc(F)cc2)c1Cl [Example I-53] | 90 | 100 | 80 | 10 | 90 | 0 | 80 | 100 | 70 | 100 | – | – | – | – | – | – | – | – | –
Nc1c(F)c(-c2ccc3ccsc3c2)nc(C(=O)OCc2c(F)cc(F)cc2F)c1Cl [Example I-55] | 90 | 90 | 90 | 10 | 90 | 0 | 60 | 100 | 40 | 100 | – | – | – | – | – | – | – | – | –
Nc1c(F)c(-c2ccc3occc3c2)nc(C(=O)OCc2ccc(F)cc2)c1Cl [Example I-34] | 100 | 90 | 80 | 0 | 80 | 40 | 90 | 100 | 50 | 100 | – | – | – | – | – | – | – | – | –
Nc1cc(-c2ccc3ccsc3c2)nc(C(=O)OCc2c(F)c(F)c(F)c(F)c2F)c1Cl [Example I-25] | – | – | – | – | – | – | – | – | – | – | 80 | 60 | 70 | 0 | 100 | 100 | 100 | 90 | 100
Nc1c(F)c(-c2ccc3sccc3c2)nc(C(=O)OCc2ccc(Cl)cc2)c1Cl [Example I-65] | 90 | 80 | 100 | 10 | 80 | 0 | 80 | 100 | – | – | – | – | – | – | – | – | – | – | –
Nc1cc(-c2ccc3occc3c2)nc(C(=O)OCc2ccc(Cl)cc2)c1Cl [Example I-31] | – | – | – | – | – | – | – | – | – | – | 50 | 20 | 30 | 30 | 90 | 90 | 100 | 100 | 100
Nc1cc(-c2ccc3sccc3c2)nc(C(=O)OCc2cccc(Cl)c2)c1Cl [Example I-40] | 90 | 80 | 40 | 60 | 90 | 80 | 90 | 100 | 10 | 80 | – | – | – | – | – | – | – | – | –
